Biological target: T1, TxGH116 β-glucosidase (Thermoanaerobacterium xylanolyticum, UniProt F6BL85, D593N)
T1 construct: gene Thexy_2211; pET30a/TxGH116Δ1-18 (residues 1-18 removed), E. coli BL21(DE3), IMAC, tag cut with enterokinase, Superdex 200
Assay: X-ray crystal structure, soaked crystal
Type: binding
Conditions: pH 5.5

[1] = 200 mM soak, subsites –1 and +1 (Michaelis complex)

T1 sequence (F6BL85 entry or part of it D593N): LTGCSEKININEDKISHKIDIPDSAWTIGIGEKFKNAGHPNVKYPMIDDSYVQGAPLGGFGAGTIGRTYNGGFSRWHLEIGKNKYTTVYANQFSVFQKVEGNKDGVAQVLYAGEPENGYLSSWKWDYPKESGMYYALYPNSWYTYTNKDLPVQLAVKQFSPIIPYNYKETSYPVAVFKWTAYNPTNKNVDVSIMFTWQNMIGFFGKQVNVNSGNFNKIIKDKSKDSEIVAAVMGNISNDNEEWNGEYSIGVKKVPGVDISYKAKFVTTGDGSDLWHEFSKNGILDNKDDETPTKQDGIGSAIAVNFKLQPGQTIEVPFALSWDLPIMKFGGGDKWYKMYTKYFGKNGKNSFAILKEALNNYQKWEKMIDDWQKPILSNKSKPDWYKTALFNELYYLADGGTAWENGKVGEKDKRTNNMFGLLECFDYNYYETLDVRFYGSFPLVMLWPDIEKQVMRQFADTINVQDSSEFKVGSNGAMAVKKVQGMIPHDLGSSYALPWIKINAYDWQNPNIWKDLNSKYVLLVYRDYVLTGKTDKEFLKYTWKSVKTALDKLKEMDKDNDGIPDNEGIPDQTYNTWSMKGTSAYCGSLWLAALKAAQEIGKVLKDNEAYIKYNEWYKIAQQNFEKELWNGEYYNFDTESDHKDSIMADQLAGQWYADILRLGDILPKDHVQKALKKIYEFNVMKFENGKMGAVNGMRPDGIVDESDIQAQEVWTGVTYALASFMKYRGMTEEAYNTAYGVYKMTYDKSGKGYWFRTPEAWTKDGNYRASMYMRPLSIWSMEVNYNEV

| SMILES | X-ray crystal structure, soaked crystal (covalent 2-deoxy-2-fluoroglucosyl-enzyme at nucleophile E441, 10 mM soak) | X-ray crystal structure, soaked crystal [1] |
| --- | --- | --- |
| O=[N+]([O-])c1ccc(O[C@@H]2O[C@H](CO)[C@@H](O)[C@H](O)[C@H]2F)c([N+](=O)[O-])c1 [2,4-dinitrophenyl 2-deoxy-2-fluroglucopyranoside] | The covalent complex of TxGH116 D593N with G2F exhibits an overall structure |  |
| OC[C@H]1O[C@@H](O[C@H]2[C@H](O)[C@@H](O)C(O)O[C@@H]2CO)[C@H](O)[C@@H](O)[C@@H]1O (stereo partly drawn) [cellobiose] |  | The structure of TxGH116 D593N with cellobiose shows the same interactions |
| OC[C@H]1O[C@@H](O[C@H]2[C@H](O)[C@@H](CO)OC(O)[C@@H]2O)[C@H](O)[C@@H](O)[C@@H]1O (stereo partly drawn) [laminaribiose] |  | The TxGH116 D593N variant with laminaribiose (Figure 2B) displays the glycosidic oxygen |

From paper PMC10167657, “Reaction Mechanism of Glycoside Hydrolase Family 116 Utilizes Perpendicular Protonation” (ACS Catalysis, 2023)
